The target in one assay is T1, TRIM66-MUT968-1160 (Homo sapiens, UniProt O15016, C1161S/C1165S/C1270S/I1224T/L1137T/M1171K/V1273N/Y1166H).
T1 construct: contained residues 968 to 1160 with eight mutated residues; GST (N, cleaved yes); made in house; host or cells: Escherichia coli BL21 (DE3)
T1 sequence (O15016 1103-1295 L1137T/C1161S/C1165S/Y1166H/M1171K/I1224T/C1270S/V1273N): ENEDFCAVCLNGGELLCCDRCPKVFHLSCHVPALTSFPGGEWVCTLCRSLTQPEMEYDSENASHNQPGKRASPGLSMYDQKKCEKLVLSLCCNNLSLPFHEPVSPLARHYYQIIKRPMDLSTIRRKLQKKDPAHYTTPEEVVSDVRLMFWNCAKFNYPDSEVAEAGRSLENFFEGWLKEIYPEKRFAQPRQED
As to the kind of experiment: ITC, crystallization mutant protein. Type of assay: binding. To be noted: 25 °C, 20 mM Tris, 100 mM NaCl, pH 7.5, single measurement. The protocol: The mutant protein of the TRIM66 PHD-Bromodomain used for the crystallographic study contained residues 968 to 1160 with eight mutated residues (L1002T, C1026S, C1030S, Y1031H, M1036K, I1089T, C1135S, and V1138N). The mutant protein was dialyzed using a buffer containing 20 mM Tris, 100 mM NaCl, and 5 mM DTT at pH 7.5 prior to the crystallographic study. The H3_1-12 peptide was dissolved in the same buffer and adjusted to pH 7.5 with a final concentration of 20 mM. Crystals of the free-state TRIM66-PHD-Bromo mutant were obtained by mixing 8 mg ml^−1 protein with an equal volume of crystallization buffer (30% w/v 5000 MME, 100 mM Tris base/hydrochloric acid pH 8.0, and 200 mM lithium sulfate) using the hanging drop vapor diffusion method at 20 °C. […]
The calorimetric experiments were performed at 25 °C using a MicroCal PEAQ-ITC. […] Peptide concentrations were estimated from the quantitative NMR experiments[73],[74]. […] The ITC data were subsequently analyzed using the MicroCal PEAQ-ITC analysis software. […]
combinational manner (Fig. 1d). To further figure out the binding mode between the TRIM66 PHD-Bromodomain and the united H3(1-15)-(48-57) K56ac peptide, we performed a NMR titration experiment and carefully analyzed the linewidth changes of TRIM66 -GSGS968-1160 (this protein is […]
In general terms: In ITC the heat of successive injections is recorded.

The next assay concerns the target T2, TRIM66 965-1160 D971A (Homo sapiens, UniProt O15016, D1106A).
T2 construct: GST (N, cleaved yes); made in house; host or cells: Escherichia coli BL21 (DE3)
T2 sequence (O15016 1100-1295 D1106A): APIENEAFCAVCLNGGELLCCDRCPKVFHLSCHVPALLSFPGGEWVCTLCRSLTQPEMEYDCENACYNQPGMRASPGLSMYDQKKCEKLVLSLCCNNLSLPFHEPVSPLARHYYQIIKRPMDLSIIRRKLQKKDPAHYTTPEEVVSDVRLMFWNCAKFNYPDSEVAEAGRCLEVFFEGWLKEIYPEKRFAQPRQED
Put plainly: ITC, point mutant. To be noted: 25 °C, pH 7.5, Weak binding = ITC curves cannot be fitted reliably. How it is done: (§1) We further investigated the role of the TRIM66 PHD-Bromodomain in safeguarding the genome. We first introduced a series of single amino acid mutations to the PHD domain at interaction interface and then performed corresponding ITC assays.
(§2) The calorimetric experiments were performed at 25 °C using a MicroCal PEAQ-ITC. The proteins were dialyzed using a buffer containing 20 mM Tris and 100 mM NaCl at pH 7.5. Lyophilized peptides were dissolved in the same buffer and adjusted to pH 7.5 prior to use. Peptide concentrations were estimated from the quantitative NMR experiments[73],[74]. ITC measurements were performed via injection of 0.7–4 mM peptide into a cell containing 0.12 mM TRIM24-PHD-Bromo, 0.05 mM TRIM33 PHD-Bromo, and 0.05 or 0.11–0.15 mM TRIM66-PHD-Bromo (or its mutants). The ITC data were subsequently analyzed using the MicroCal PEAQ-ITC analysis software.

In another assay the target is T3, TRIM66 965-1160 D986A (Homo sapiens, UniProt O15016, D1121A).
T3 construct: GST (N, cleaved yes); made in house; host or cells: Escherichia coli BL21 (DE3)
T3 sequence (O15016 1100-1295 D1121A): T2 sequence (O15016 1100-1295 D1106A) with A7D, D22A
Put plainly: ITC, point mutant. To be noted: 25 °C, pH 7.5, Weak binding = ITC curves cannot be fitted reliably. The protocol: as §1, §2

SMILES strings stand for the structures. Changes are numbered by the printed parent chain.

Broadly, the Kd is the constant that tells how readily two partners part at equilibrium.

Turning to `C[C@H](N)C(=O)N[C@@H](CCCNC(=N)N)C(=O)N[C@H](C(=O)N[C@@H](CCCCN)C(=O)N[C@@H](CCC(N)=O)C(=O)N[C@H](C(=O)N[C@@H](C)C(=O)N[C@@H](CCCNC(=N)N)C(=O)N[C@@H](CCCCN)C(=O)N[C@@H](CO)C(=O)N[C@H](C(=O)NCC(=O)O)[C@@H](C)O)[C@@H](C)O)[C@@H](C)O` [H3_1-12], the Kd on TRIM66-MUT968-1160 amounted to 19 ± 0.76 µM. Further, the KD entry on TRIM66 965-1160 D971A and at TRIM66 965-1160 D986A was “Weak binding” in each case.

For the origin of these results see PMC6753139, “TRIM66 reads unmodified H3R2K4 and H3K56ac to respond to DNA damage in embryonic stem cells” (Nature Communications, 2019).
